Among the data in article PMC10253665, “Enhancing the Catalytic Activity of Thermo-Asparaginase from Thermococcus sibiricus by a Double Mesophilic-like Mutation in the Substrate-Binding Region” (International Journal of Molecular Sciences, 2023) are Km values, retold here.

The target in data set [1] is T1, TsA (L-asparaginase from Thermococcus sibiricus) (Thermococcus sibiricus, UniProt C6A532).
T1 construct: gene TSIB_1676
The experiment in a line: direct Nesslerization (ammonia release). The format is biochemical. The note with it: 90 °C, Tris-HCl 0.05 M pH 9.0 (b36 says same conditions as mutant).

Substrate in data set [2]: NC(=O)C[C@H](N)C(=O)O
Briefly: direct Nesslerization (ammonia release). Format: biochemical, Thermococcus sibiricus. The conditions noted are these: 90 °C, glycine-NaOH 0.01 M pH 9.3, printed substrate range 20-250 μM.

T1 sequence (C6A532 entry or part of it): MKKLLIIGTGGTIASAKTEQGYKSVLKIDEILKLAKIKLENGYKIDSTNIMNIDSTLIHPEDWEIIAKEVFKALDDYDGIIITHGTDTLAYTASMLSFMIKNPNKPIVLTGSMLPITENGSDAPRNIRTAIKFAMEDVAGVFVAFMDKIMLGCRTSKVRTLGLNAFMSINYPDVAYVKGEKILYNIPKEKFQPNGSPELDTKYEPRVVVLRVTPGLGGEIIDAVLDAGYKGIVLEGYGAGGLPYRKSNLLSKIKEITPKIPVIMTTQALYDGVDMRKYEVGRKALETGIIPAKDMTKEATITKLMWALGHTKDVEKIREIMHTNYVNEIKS

Turning to `NC(=O)C[C@H](N)C(=O)O` [L-asparagine], in data set [1], the Km came out at 3000 µM.

B1: TsA (L-asparaginase from Thermococcus sibiricus) (Thermococcus sibiricus MM 739; D54G/T56Q) (protein)
chain: MKKLLIIGTGGTIASAKTEQGYKSVLKIDEILKLAKIKLENGYKIDSTNIMNIGSQLIHPEDWEIIAKEVFKALDDYDGIIITHGTDTLAYTASMLSFMIKNPNKPIVLTGSMLPITENGSDAPRNIRTAIKFAMEDVAGVFVAFMDKIMLGCRTSKVRTLGLNAFMSINYPDVAYVKGEKILYNIPKEKFQPNGSPELDTKYEPRVVVLRVTPGLGGEIIDAVLDAGYKGIVLEGYGAGGLPYRKSNLLSKIKEITPKIPVIMTTQALYDGVDMRKYEVGRKALETGIIPAKDMTKEATITKLMWALGHTKDVEKIREIMHTNYVNEIKS
Turning to B1, the Km in data set [2] was found to be 6000 µM.
